According to patent US9963462B2 (priority 2015, dated 2018):

Key:
[1] = test system: BH4 production in human peripheral blood mononuclear cells (PBMCs); assay: hPBMC assay, inhibition of BH4 production by LC-MS (anti-CD3/anti-CD28 stimulated); assay type: cell-based; conditions: PBMC, read-out: hPBMC IC50
[2] = target: SNAP-hSPR (sepiapterin reductase, SPR) (Homo sapiens, UniProt P35270); assay: biochemical; assay type: binding; conditions: terbium labelled SNAP-hSPR / SSZ labelled SNAP-EGFP; read-out: hTR-FRET IC50
Sequence of SNAP-hSPR (sepiapterin reductase, SPR) (P35270 whole entry): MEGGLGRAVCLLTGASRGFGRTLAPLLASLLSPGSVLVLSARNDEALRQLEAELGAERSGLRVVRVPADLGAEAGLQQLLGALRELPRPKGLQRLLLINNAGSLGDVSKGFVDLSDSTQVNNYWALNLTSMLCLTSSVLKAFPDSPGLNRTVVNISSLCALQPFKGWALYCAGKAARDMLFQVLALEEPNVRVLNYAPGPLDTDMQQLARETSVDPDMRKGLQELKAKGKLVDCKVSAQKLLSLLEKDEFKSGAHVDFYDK

| Structure (SMILES) | IC50 [1] [nM] | IC50 [2] [nM] |
| --- | --- | --- |
| Cc1c(C(=O)N2CCc3nc(-c4ccccn4)sc3C2)cnn1-c1nn2cccc2c(=O)[nH]1 [Q-1158] | 130 | 2 |
| Cc1c(C(=O)N2CCN(S(C)(=O)=O)CC2)cnn1-c1nn2cccc2c(=O)[nH]1 [Q-1539] | 780 | 4 |
| O=C(c1cn(-c2nn3cccc3c(=O)[nH]2)nn1)N1CCN(C2CCC2(F)F)CC1 (stereo not shown) [Q-1247] | 150 | 2 |
| Cc1c(C(=O)N2C3CC2CN(CC(F)(F)F)C3)cnn1-c1nn2cccc2c(=O)[nH]1 [Q-1083] | 68 | 1 |
| Cc1c(C(=O)N2CCN(CC(F)(F)F)CC2)cnn1-c1nc2c(c(=O)[nH]1)COC2 [Q-1344] | 320 | 9 |
| Cc1c(C(=O)N2CCN(C(=O)C3CC3)CC2)cnn1-c1nn2cccc2c(=O)[nH]1 [Q-1213] | 890 | 3 |
| Cc1noc(C)c1S(=O)(=O)N1CCN(C(=O)c2cnn(-c3nn4cccc4c(=O)[nH]3)c2C)CC1 [Q-1848] | 210 | 1 |
| Cc1c(C(=O)N2CCN(CC(F)(F)F)c3ccccc32)cnn1-c1nn2cccc2c(=O)[nH]1 [Q-1216] | 46 | 1 |
| Cc1c(C(=O)N2CCC(c3ccc(F)nc3)CC2)cnn1-c1nn2cccc2c(=O)[nH]1 [Q-1105] | 18 | 1 |
| Cc1c(C(=O)N2CCN(c3ncc(-c4ccccc4C(F)(F)F)o3)CC2)cnn1-c1nn2cccc2c(=O)[nH]1 [Q-1171] | 140 | 10 |
| Cc1c(C(=O)N2CCC(c3nccs3)CC2)cnn1-c1nc2c(c(=O)[nH]1)CCC2 [Q-1076] | 35 | 1 |
| Cc1c(C(=O)N2CC(c3cccc(F)n3)C2)cnn1-c1nn2cccc2c(=O)[nH]1 [Q-1121] | 70 | 1 |
| CCC(=O)C1CCN(C(=O)c2cnn(-c3nn4cccc4c(=O)[nH]3)c2C)CC1 [Q-1112] | 37 | 1 |
| Cc1c(C(=O)N2CC3CC(C2)N3CCC(F)(F)F)cnn1-c1nn2cccc2c(=O)[nH]1 [Q-1194] | 60 | 2 |
| Cc1c(C(=O)N2CCN(c3ncc(-c4ccc(F)cc4)o3)CC2)cnn1-c1nn2cccc2c(=O)[nH]1 [Q-1202] | 260 | 5 |
| Cc1c(C(=O)N2CCN(S(=O)(=O)c3cccc(C#N)c3)CC2)cnn1-c1nn2cccc2c(=O)[nH]1 [Q-1794] | 250 | 2 |
| Cc1c(C(=O)N2CCC(c3nc(-c4ccncc4)cs3)CC2)cnn1-c1nn2cccc2c(=O)[nH]1 [Q-1101] | 41 | 1 |
| Cc1c(C(=O)N2CCN(CC(F)(F)F)CC2)cnn1-c1nc2[nH]ccc2c(=O)[nH]1 [Q-1256] | 330 | 30 |
| O=C(c1cn(-c2nn3cccc3c(=O)[nH]2)nn1)N1CC2CC(C1)N2CC(F)(F)F [Q-1226] | 410 | 7 |
| Cc1c(C(=O)N2CCC(c3ccc(F)cn3)CC2)cnn1-c1nn2cccc2c(=O)[nH]1 [Q-1115] | 45 | 1 |
| Cc1c(C(=O)N2CC3CCC(C2)C3C(F)(F)F)cnn1-c1nn2cccc2c(=O)[nH]1 (stereo not shown) [Q-1130] | 57 | 1 |
| Cc1c(C(=O)N2CCN(c3ncc(-c4ccccc4C#N)o3)CC2)cnn1-c1nn2cccc2c(=O)[nH]1 [Q-1203] | 180 | 6 |

| Structure (SMILES) | IC50 [1] [nM] | IC50 [2] [nM] |
| --- | --- | --- |
| Cc1c(C(=O)N2CCN(c3ncc(-c4ccncc4)s3)CC2)cnn1-c1nn2cccc2c(=O)[nH]1 [Q-1235] | 18 | 5 |
| O=C(c1cn(-c2nn3cccc3c(=O)[nH]2)nn1)N1CC(N2CCC(F)(F)C2)C1 [Q-1224] | 370 | 9 |
| Cc1c(C(=O)N2CCN(S(=O)(=O)C3CCCCC3)CC2)cnn1-c1nn2cccc2c(=O)[nH]1 [Q-1818] | 95 | 1 |
| Cc1c(C(=O)N2CCN(c3nc(-c4ccccc4F)cs3)CC2)cnn1-c1nn2cccc2c(=O)[nH]1 [Q-1165] | 190 | 6 |
| Cc1c(C(=O)N2CCC(c3nc(-c4cccnc4)cs3)CC2)cnn1-c1nc2c(c(=O)[nH]1)CCC2 [Q-1084] | 13 | 2 |
| O=C(c1cn(-c2nn3cccc3c(=O)[nH]2)nn1)N1CCN(CC(F)(F)F)CC1 [Q-1223] | 24 | 3 |
| Cc1c(C(=O)N2CCN(S(=O)(=O)N(C)C)CC2)cnn1-c1nn2cccc2c(=O)[nH]1 [Q-1846] | 170 | 1 |
| Cc1c(C(=O)N2CCN(S(=O)(=O)CCC(F)(F)F)CC2)cnn1-c1nn2cccc2c(=O)[nH]1 [Q-1728] | 86 | 1 |
| Cc1c(C(=O)N2CCC(c3noc(C(F)(F)F)n3)CC2)cnn1-c1nn2cccc2c(=O)[nH]1 [Q-1074] | 22 | 1 |
| Cc1c(C(=O)N2CCC2c2cccc(F)n2)cnn1-c1nn2cccc2c(=O)[nH]1 (stereo not shown) [Q-1217] | 270 | 3 |
| Cc1c(C(=O)N2CC3(C2)CC(F)(F)C3)cnn1-c1nc2cc[nH]c2c(=O)[nH]1 [Q-1259] | 360 | 100 |
| Cc1c(C(=O)N2CCN(c3nc(-c4cccc(Cl)c4)cs3)CC2)cnn1-c1nn2cccc2c(=O)[nH]1 [Q-1155] | 270 | 10 |
| Cc1c(C(=O)N2CCc3nc(-c4ccncc4)sc3C2)cnn1-c1nn2cccc2c(=O)[nH]1 [Q-1187] | 190 | 4 |
| Cc1c(C(=O)N2CC3CC(C2)N3CC(F)(F)F)cnn1-c1nc2cc[nH]c2c(=O)[nH]1 [Q-1291] | 2400 | 200 |
| Cc1c(C(=O)N2CCc3nc(-c4cccnc4)sc3C2)cnn1-c1nn2cccc2c(=O)[nH]1 [Q-1206] | 70 | 1 |
| Cc1c(C(=O)N2CCN(C3CCC3)CC2)nnn1-c1nn2cccc2c(=O)[nH]1 [Q-1191] | 20 | 1 |
| Cc1c(C(=O)N2CCN(c3ncc(-c4cccc(C(F)(F)F)c4)o3)CC2)cnn1-c1nn2cccc2c(=O)[nH]1 [Q-1159] | 600 | 20 |
| CCCS(=O)(=O)N1CCN(C(=O)c2cnn(-c3nn4cccc4c(=O)[nH]3)c2C)CC1 [Q-1797] | 79 | 1 |
| Cc1c(C(=O)N2CCN(S(=O)(=O)C(F)(F)F)CC2)cnn1-c1nn2cccc2c(=O)[nH]1 [Q-1886] | 110 | 2 |
| Cc1c(C(=O)N2CCCN(C(C)C(F)(F)F)CC2)cnn1-c1nn2cccc2c(=O)[nH]1 (stereo not shown) [Q-1218] | 130 | 3 |
| Cc1c(C(=O)N2CCN(c3nnc(-c4ccccc4Cl)o3)CC2)cnn1-c1nn2cccc2c(=O)[nH]1 [Q-1188] | 290 | 6 |
| Cc1c(C(=O)N2CC(c3ccc(F)cn3)C2)cnn1-c1nn2cccc2c(=O)[nH]1 [Q-1128] | 48 | 2 |

| Structure (SMILES) | IC50 [1] [nM] | IC50 [2] [nM] |
| --- | --- | --- |
| Cc1c(C(=O)N2CCc3nc(-c4ccc(F)cc4)sc3C2)cnn1-c1nn2cccc2c(=O)[nH]1 [Q-1160] | 110 | 3 |
| O=C(c1cn(-c2nn3cccc3c(=O)[nH]2)nn1)N1CC2(C1)CC(F)(F)C2 [Q-1237] | 700 | 3 |
| Cc1c(C(=O)N2CCC(c3ccc(Cl)nc3)CC2)cnn1-c1nn2cccc2c(=O)[nH]1 [Q-1116] | 76 | 1 |
| Cc1c(C(=O)N2CCN(S(=O)(=O)c3ccccc3)CC2)cnn1-c1nn2cccc2c(=O)[nH]1 [Q-1535] | 110 | 1 |
| Cc1c(C(=O)N2CC3CCCC(C2)N3CC(F)(F)F)cnn1-c1nc2c(c(=O)[nH]1)CCC2 [Q-1081] | 130 | 2 |
| Cc1c(C(=O)N2CCC3(CCCCC3=O)CC2)cnn1-c1nn2cccc2c(=O)[nH]1 [Q-1220] | 22 | 1 |
| Cc1c(C(=O)N2CCN(c3nc(-c4cccc(C#N)c4)cs3)CC2)cnn1-c1nn2cccc2c(=O)[nH]1 [Q-1181] | 11 | 2 |
| Cc1c(C(=O)N2CCN(c3ncc(-c4cccc(Cl)c4)o3)CC2)cnn1-c1nn2cccc2c(=O)[nH]1 [Q-1176] | 280 | 9 |
| Cc1c(C(=O)N2CCc3nc(C(F)(F)F)sc3C2)cnn1-c1nn2cccc2c(=O)[nH]1 [Q-1078] | 36 | 5 |
| Cc1c(C(=O)N2CCCC(O)(C(F)(F)F)CC2)cnn1-c1nn2cccc2c(=O)[nH]1 (stereo not shown) [Q-1118] | 110 | 1 |
| Cc1c(C(=O)N2CCC(c3nc(-c4ccccc4)co3)CC2)cnn1-c1nn2cccc2c(=O)[nH]1 [Q-1080] | 25 | 2 |
| Cc1c(C(=O)N2CCN(c3nc(-c4ccnc(F)c4)cs3)CC2)cnn1-c1nn2cccc2c(=O)[nH]1 [Q-1196] | 52 | 3 |
| Cc1c(C(=O)N2CCN(c3nnc(-c4ccc(C(F)(F)F)cn4)o3)CC2)cnn1-c1nn2cccc2c(=O)[nH]1 [Q-1178] | 2600 | 9 |
| Cc1c(C(=O)N2CCC3(CC2)CC3C(=O)N2CCC2)cnn1-c1nn2cccc2c(=O)[nH]1 (stereo not shown) [Q-1088] | 290 | 4 |
| Cc1c(C(=O)N2CCN(S(=O)(=O)C(C)C)CC2)cnn1-c1nn2cccc2c(=O)[nH]1 [Q-1558] | 92 | 2 |
| Cc1c(C(=O)N2CCN(c3nnc(-c4ccc(Cl)cc4)o3)CC2)cnn1-c1nn2cccc2c(=O)[nH]1 [Q-1140] | 230 | 8 |
| Cc1c(C(=O)N2CCC2c2ccc(F)cn2)cnn1-c1nn2cccc2c(=O)[nH]1 (stereo not shown) [Q-1301] | 820 | 10 |
| Cc1c(C(=O)N2CCc3nc(-c4cccc(Cl)c4)sc3C2)cnn1-c1nn2cccc2c(=O)[nH]1 [Q-1166] | 20 | 5 |
| Cc1c(C(=O)N2CCN(S(=O)(=O)c3ccccc3OC(F)(F)F)CC2)cnn1-c1nn2cccc2c(=O)[nH]1 [Q-1861] | 98 | 1 |
| Cc1c(C(=O)N2CCN(c3nc(-c4ccccc4Cl)cs3)CC2)cnn1-c1nn2cccc2c(=O)[nH]1 [Q-1152] | 380 | 8 |
| CCC(=O)N1CCN(C(=O)c2cnn(-c3nn4cccc4c(=O)[nH]3)c2C)CC1 [Q-1214] | 1000 | 6 |
